The assay addresses T1, LXRβ (Homo sapiens, UniProt P55055).
T1 construct: Co-transfection expression plasmids, comprising full-length LXRα (pCMX-h LXRα[…] or LXRβ (pCMX-hLXRβ)); expressed in transfected cells; host or cells: CV-1 African Green Monkey Kidney Cells
T1 sequence (P55055 1-460): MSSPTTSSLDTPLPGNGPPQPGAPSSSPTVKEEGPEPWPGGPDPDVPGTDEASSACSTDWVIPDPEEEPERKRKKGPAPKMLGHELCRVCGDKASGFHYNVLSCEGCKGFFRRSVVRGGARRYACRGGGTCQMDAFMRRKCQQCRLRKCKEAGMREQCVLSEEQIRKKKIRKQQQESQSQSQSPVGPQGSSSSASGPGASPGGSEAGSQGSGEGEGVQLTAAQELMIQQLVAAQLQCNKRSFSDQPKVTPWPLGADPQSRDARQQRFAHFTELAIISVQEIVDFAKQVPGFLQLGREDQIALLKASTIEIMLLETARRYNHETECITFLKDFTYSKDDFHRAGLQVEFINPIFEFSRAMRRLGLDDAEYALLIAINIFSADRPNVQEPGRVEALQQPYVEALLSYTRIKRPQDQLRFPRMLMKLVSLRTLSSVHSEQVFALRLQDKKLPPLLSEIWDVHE
T1 sequence (P19793 1-462 partner): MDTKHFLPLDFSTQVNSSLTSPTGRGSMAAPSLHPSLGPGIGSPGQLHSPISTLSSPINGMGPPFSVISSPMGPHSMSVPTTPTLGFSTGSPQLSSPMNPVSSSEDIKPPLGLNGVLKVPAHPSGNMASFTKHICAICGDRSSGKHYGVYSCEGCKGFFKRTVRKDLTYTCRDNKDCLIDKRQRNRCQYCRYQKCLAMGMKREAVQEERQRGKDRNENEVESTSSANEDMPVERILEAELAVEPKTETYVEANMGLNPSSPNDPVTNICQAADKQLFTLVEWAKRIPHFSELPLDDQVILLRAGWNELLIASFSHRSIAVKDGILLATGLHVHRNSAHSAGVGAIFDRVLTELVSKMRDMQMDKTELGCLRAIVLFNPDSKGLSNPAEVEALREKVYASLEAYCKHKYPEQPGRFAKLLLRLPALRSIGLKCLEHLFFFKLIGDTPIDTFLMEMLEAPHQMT
Briefly: Co-transfection assay (LXRE luciferase reporter), LXRβ. Type of assay: cell-based. Also on record: % Efficacy: concentration or dose not given beside the values. To be noted: for EC50: CV-1 cells transfected with pCMX-hLXRβ and LXREx1-Tk-Luciferase, 20 hours incubation; for Emax: read-out: % Efficacy. Put shortly: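 Cell-based LXRβ agonism measured as LXRE-luciferase induction in transiently transfected CV-1 cells after 20 h treatment. Potency is the curve-fit EC50; efficacy is expressed as percent of a full-agonist control's maximal response.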

[1] abbreviates: LXRβ co-transfection, relative to high control 1-(2,4-difluorobenzyl)-2-oxo-6-(4-phenoxyphenyl)-4-(trifluoromethyl)-1,2-dihydropyridine-3-carbonitrile.

The record followed here is patent US9834542B2, “LXR modulators” (BRISTOL-MYERS SQUIBB COMPANY, priority 2013, dated 2017).

In the case of `Cc1nc(-c2cc(-c3cccc(S(=O)(=O)C(F)F)c3)ccc2-n2cc(C(F)(F)F)nc2C)c(-c2ccc(OC(F)F)c(F)c2)o1` [Example 430, 5-(4-(difluoromethoxy)-3-fluorophenyl)-4-(3′-(difluoromethylsulfonyl)-4-(2-methyl-4-(trifluoromethyl)-1H-imidazol-1-yl)biphenyl-3-yl)-2-methyloxazole], the midpoint of the response, the EC50, lay at 225 nM. Further, under setting [1], the Emax is 88%.
For `Cc1nc(-c2cc(-c3cccc(S(C)(=O)=O)c3)ccc2-n2cc(C(F)(F)F)nc2C)c(-c2ccc(Cl)cn2)o1` [Example 431, 5-(5-chloropyridin-2-yl)-2-methyl-4-(4-(2-methyl-4-(trifluoromethyl)-1H-imidazol-1-yl)-3′-(methylsulfonyl)biphenyl-3-yl)oxazole], in that order: 358 nM and 85%.
With `Cc1cc(-c2oc(C)nc2-c2cc(-c3cc(F)c(CO)c(S(C)(=O)=O)c3)ccc2-n2cc(C(F)(F)F)nc2C)cc(Cl)n1` [Example 432, (3′-(5-(2-chloro-6-methylpyridin-4-yl)-2-methyloxazol-4-yl)-3-fluoro-4′-(2-methyl-4-(trifluoromethyl)-1H-imidazol-1-yl)-5-(methylsulfonyl)biphenyl-4-yl)methanol], a half-maximal response (EC50) required 45 nM. Also, the “% Efficacy” value under setting [1] was 83%.
As for `Cc1nc(-c2cc(-c3cccc(S(C)(=O)=O)c3)ccc2-n2cc(C(F)(F)F)nc2C)c(-c2cc(Cl)ccn2)o1` [Example 434, 5-(4-chloropyridin-2-yl)-2-methyl-4-(4-(2-methyl-4-(trifluoromethyl)-1H-imidazol-1-yl)-3′-(methylsulfonyl)biphenyl-3-yl)oxazole], a half-maximal effect (EC50) was put at 462 nM. The Emax under setting [1] was 65%.
For the compound `Cc1nc(-c2cc(-c3ccc(C)c(S(C)(=O)=O)c3)ccc2-n2cc(C(F)(F)F)nc2C)c(-c2ccc(OC(F)F)c(F)c2)o1` [Example 435, 5-(4-(difluoromethoxy)-3-fluorophenyl)-2-methyl-4-(4′-methyl-4-(2-methyl-4-(trifluoromethyl)-1H-imidazol-1-yl)-3′-(methylsulfonyl)biphenyl-3-yl)oxazole], a half-maximal effect (EC50) was put at 69 nM. Besides, the Emax under setting [1] is 87%.
In the case of `Cc1nc(-c2cc(-c3cccc(S(C)(=O)=O)c3)ccc2-n2cc(C(F)(F)F)nc2C)c(-c2ccc3ccccc3c2)o1` [Example 436, 2-methyl-4-(4-(2-methyl-4-(trifluoromethyl)-1H-imidazol-1-yl)-3′-(methylsulfonyl)biphenyl-3-yl)-5-(naphthalen-2-yl)oxazole], the EC50 (commonly the concentration giving half of the maximal effect) was determined as 76 nM. Also, under setting [1], the Emax amounted to 77%.
In turn, `Cc1nc(-c2cc(-c3cc(F)c(CO)c(S(C)(=O)=O)c3)ccc2-n2cc(C(F)(F)F)nc2C)c(-c2ccc3ccccc3c2)o1` [Example 437, (3-fluoro-4′-(2-methyl-4-(trifluoromethyl)-1H-imidazol-1-yl)-3′-(2-methyl-5-(naphthalen-2-yl)oxazol-4-yl)-5-(methylsulfonyl)biphenyl-4-yl)methanol] showed a 50% effective concentration (EC50) of 34 nM. For the same compound, the Emax under setting [1] was determined as 76%.
For `Cc1nc(-c2cc(-c3cccc(C4(C(N)=O)CC4)c3)ccc2-n2cc(C(F)(F)F)nc2C)c(-c2ccc(OC(F)F)c(F)c2)o1` [Example 438, 1-(3′-(5-(4-(difluoromethoxy)-3-fluorophenyl)-2-methyloxazol-4-yl)-4′-(2-methyl-4-(trifluoromethyl)-1H-imidazol-1-yl)biphenyl-3-yl)cyclopropanecarboxamide] the same measures were 1380 nM and 65%.
For `COc1ncc(-c2oc(C)nc2-c2cc(-c3cccc(S(C)(=O)=O)c3)ccc2-n2cc(C(F)(F)F)nc2C)cc1F` [Example 439, 5-(5-fluoro-6-methoxypyridin-3-yl)-2-methyl-4-(4-(2-methyl-4-(trifluoromethyl)-1H-imidazol-1-yl)-3′-(methylsulfonyl)biphenyl-3-yl)oxazole], in that order: 410 nM and 80%.
For `COc1ncc(-c2oc(C)nc2-c2cc(-c3cc(F)c(CO)c(S(C)(=O)=O)c3)ccc2-n2cc(C(F)(F)F)nc2C)cc1F` [Example 440, (3-fluoro-3′-(5-(5-fluoro-6-methoxypyridin-3-yl)-2-methyloxazol-4-yl)-4′-(2-methyl-4-(trifluoromethyl)-1H-imidazol-1-yl)-5-(methylsulfonyl)biphenyl-4-yl)methanol], in that order: 214 nM and 75%.
`Cc1nc(-c2cc(-c3cccc(S(C)(=O)=O)c3)ccc2-n2cc(C(F)(F)F)nc2C)c(-c2cccc(Cl)n2)o1` [Example 441, 5-(6-chloropyridin-2-yl)-2-methyl-4-(4-(2-methyl-4-(trifluoromethyl)-1H-imidazol-1-yl)-3′-(methylsulfonyl)biphenyl-3-yl)oxazole] returned an EC50 of 1310 nM. Moreover, the Emax under setting [1] was 38%.
For `Cc1nc(-c2cc(-c3cccc(C(=O)N(C)C)c3)ccc2-n2cc(C(F)(F)F)nc2C)c(-c2ccc(OC(F)F)c(F)c2)o1` [Example 442, 3′-(5-(4-(difluoromethoxy)-3-fluorophenyl)-2-methyloxazol-4-yl)-N,N-dimethyl-4′-(2-methyl-4-(trifluoromethyl)-1H-imidazol-1-yl)biphenyl-3-carboxamide], in that order: 729 nM and 58%.
`Cc1nc(-c2cc(-c3cccc(S(C)(=O)=O)c3)ccc2-n2cc(C(F)(F)F)nc2C)c(-c2ccc3c(c2)OCCO3)o1` [Example 443, 5-(2,3-dihydrobenzo[b][1,4]dioxin-6-yl)-2-methyl-4-(4-(2-methyl-4-(trifluoromethyl)-1H-imidazol-1-yl)-3′-(methylsulfonyl)biphenyl-3-yl)oxazole] returned an EC50 of 234 nM. Further, the Emax under setting [1] is 75%.
As for `Cc1nc(-c2cc(-c3cc(F)c(CO)c(S(C)(=O)=O)c3)ccc2-n2cc(C(F)(F)F)nc2C)c(-c2ccc3c(c2)OCCO3)o1` [Example 444, (3′-(5-(2,3-dihydrobenzo[b][1,4]dioxin-6-yl)-2-methyloxazol-4-yl)-3-fluoro-4′-(2-methyl-4-(trifluoromethyl)-1H-imidazol-1-yl)-5-(methylsulfonyl)biphenyl-4-yl)methanol], the EC50 was 125 nM. Under setting [1], the Emax was 74%.
For `Cc1nc(-c2cc(-c3ccc(C)c(S(C)(=O)=O)c3)ccc2-n2cc(C(F)(F)F)nc2C)c(-c2ccc3c(c2)OC(F)(F)O3)o1` [Example 445, 5-(2,2-difluorobenzo[d][1,3]dioxol-5-yl)-2-methyl-4-(4′-methyl-4-(2-methyl-4-(trifluoromethyl)-1H-imidazol-1-yl)-3′-(methylsulfonyl)biphenyl-3-yl)oxazole] the same measures were 36 nM and 69%.
For `Cc1nc(-c2cc(-c3cccc(C4(C(N)=O)CC4)c3)ccc2-n2cc(C(F)(F)F)nc2C)c(-c2ccc3c(c2)OC(F)(F)O3)o1` [Example 446, 1-(3′-(5-(2,2-difluorobenzo[d][1,3]dioxol-5-yl)-methyloxazol-4-yl)-4′-(2-methyl-4-(trifluoromethyl)-1H-imidazol-1-yl)biphenyl-3-yl)cyclopropanecarboxamide], in that order: 836 nM and 51%.
For `Cc1nc(-c2cc(-c3cccc(S(C)(=O)=O)c3)ccc2-n2cc(C(F)(F)F)nc2C)c(-c2cc(F)cc(F)c2)o1` [Example 447], in that order: 269 nM and 64%.
